Test results: patent US9771358B2, “Dihydropyrimidine compounds and their application in pharmaceuticals” (SUNSHINE LAKE PHARMA CO., LTD., priority 2014, dated 2017)
Read-outs that look alike come from different tables or passages of the source.

How the values were obtained:
[1] = test system: HBV; test: In-vitro anti-HBV activity in stable HBV-producing cell line (HepG2.2.15), HBV DNA by qPCR; assay type: cell-based; conditions: Hepatitis B virus
Procedure: HBV DNA contents in cell culture fluid were detected by the qPCR-based assay and 50% effective concentration (EC50) values of the compounds against HBV were calculated. Specific procedures are as follows:
HepG2.2.15 cells were seeded into each well of 96-well plates, 40,000 cells per well. Cells were treated with cell culture medium containing compounds with different concentrations for 24 hours after cell seeding. The final concentration of each compound was 16.4 μM in each well and each compound was diluted to desired concentration using 3-fold gradient dilution protocol, 9 diluted points in duplicate. The culture mediums containing the compounds were refreshed on day 4 post cell seeding. Culture media were collected from the HepG2.2.15 plates on day 7 post cell seeding followed by HBV DNA extraction.
HBV DNA extraction: The HBV DNA extraction was performed using QIAamp 96 DNA Blood Kit (QIAGEN 51161).
PCR for quantification: PCR mix was prepared according to PCR system. PCR mix was dispensed to 96-well optical reaction plates (special for quantification). The standard diluted proportionally was added. Then the sample was added; The plates were sealed with optical adhesive film; PCR system was performed according to programs.
Percentage of HBV inhibition of DNA replication by compound was calculated using the following equation: % Inh.=[1-HBV DNA quantity of sample/HBV DNA quantity of DMSO control]×100.
Calculating EC50 value of compounds to HBV replication: the EC50 values were calculated based on “four-parameter logistic equation” and using GraphPad Prism 5 analysis software.

[2] = PK of test compounds in beagle; assay type: in vivo, beagle dog; conditions: for Cmax / Tmax / clearance / half-life / AUC(0-inf) / AUC(0-t) / Vd: dog, plasma; for AUC(0-inf): AUC in 0 hour to infinite time; for Vd: read-out: Vss; for F: absolute bioavailability
Procedure: The test compounds were administrated to beagle dog by gavage in dose of 2.5 mg/kg or 5 mg/kg, or by intravenous injection in dose of 1 mg/kg or 2 mg/kg. Blood sample was collected at 0.083, 0.25, 0.5, 1, 2, 4, 6, 8 and 24 hours from vein after administration into anticoagulation tubes with EDTA-K2. The test compounds were extracted from plasma samples and chromatographed on a tandem mass spectrometer. Quantitation was performed using multiple reaction monitoring (MRM). Pharmacokinetic parameters were calculated using WinNonlin 6.3 software with non compartment model.

[3] = Stability in liver microsome, monkey; assay type: in vitro ADME; conditions: liver microsomes; monkey liver microsome 0.1 mg/mL, compound 1 μM, NADPH 2 mM
Procedure: (§1) Then two parallel samples were prepared. After a 10 minutes preincubation at 37° C., 15 μL of NADPH solution (8 mM) was added according to the point-in-time. The final concentration of the text compound was 1 μM, the concentration of liver microsome was 0.1 mg/mL, the final concentration of NADPH was 2 mM. The incubations were last for 0, 15, 30, 60 min respectively, and then 150 μL of acetonitrile (include interior label) was added to the mixture system. After dilution with acetonitrile, the samples were centrifuged for 5 minutes in 4000 rpm. The supernatant liquid was collected for LC-MS/MS analysis.

[4] = Stability in liver microsome, mouse; assay type: in vitro ADME; conditions: liver microsomes; mouse liver microsome 0.1 mg/mL, compound 1 μM, NADPH 2 mM
Procedure: as §1

[5] = Stability in liver microsome, dog; assay type: in vitro ADME; conditions: liver microsomes; dog liver microsome 0.1 mg/mL, compound 1 μM, NADPH 2 mM
Procedure: as §1

[6] = Stability in liver microsome, human; assay type: in vitro ADME; conditions: liver microsomes; human liver microsome 0.1 mg/mL, compound 1 μM, NADPH 2 mM
Procedure: as §1

[7] = 168 h, HepG2.2.15 cells, HBV DNA in culture fluid, day 7, top concentration 16.4 μM
[8] = iv, 1 mg/kg, iv, 1 mg/kg, AUC in 0-24 hours, read-out: AUClast
[9] = po, 2.5 mg/kg, po, 2.5 mg/kg value multiplied by 2, read-out: AUClast ×2 (calculated by dosage)
[10] = po, 2.5 mg/kg, po, 2.5 mg/kg, AUC in 0-24 hours, read-out: AUClast

Row | SMILES | EC50 [1, 7] | Cmax ([2]; iv, 1 mg/kg) | Tmax ([2]; iv, 1 mg/kg) | clearance ([2]; iv, 1 mg/kg) | half-life ([2]; iv, 1 mg/kg) | AUC(0-inf) ([2]; iv, 1 mg/kg) | AUC(0-t) [2, 8] | Vd ([2]; iv, 1 mg/kg) | CLint scaled at 1 μM [3] | half-life at 1 μM [3] | CLint scaled at 1 μM [4] | half-life at 1 μM [4] | CLint scaled at 1 μM [5] | half-life at 1 μM [5] | CLint scaled at 1 μM [6] | half-life at 1 μM [6] | Cmax ([2]; po, 2.5 mg/kg) | Tmax ([2]; po, 2.5 mg/kg) | half-life ([2]; po, 2.5 mg/kg) | AUC(0-inf) ([2]; po, 2.5 mg/kg) | further results
1 | CCOC(=O)C1=C(CN2CCO[C@H](CCC(=O)O)C2)NC(c2nccs2)=N[C@H]1c1ccc(F)cc1Br [Example 2, 3-((R)-4-(((R)-6-(2-Bromo-4-fluorophenyl)-5-(ethoxycarbonyl)-2-(thiazol-2-yl)-3,6-dihydropyrimidin-4-yl)methyl)morpholin-2-yl)propanoic acid] | 0.035 µM | 2050 ng/mL | 0.083 h | 1.93 mL/min/kg | 5.71 h | 8700 ng·h/mL | 8270 ng·h/mL | 0.756 L/kg | 107 mL/min/kg | 0.314 h | 385 mL/min/kg | 0.236 h | 14.3 mL/min/kg | 4.02 h | 17.5 mL/min/kg | 1.66 h |  |  |  |  | Cmax ([2]; po, 5 mg/kg): 6330 ng/mL; Tmax ([2]; po, 5 mg/kg): 1.33 h; half-life ([2]; po, 5 mg/kg): 5.1 h; AUC(0-inf) ([2]; po, 5 mg/kg): 49600 ng·h/mL; AUC(0-t) ([2]; po, 5 mg/kg, po, 5 mg/kg, AUC in 0-24 hours, read-out: AUClast): 47900 ng·h/mL; F ([2]; po, 5 mg/kg): 114.1%
2 | CCOC(=O)C1=C(CN2CCO[C@H](CCC(=O)O)C2)NC(c2nccs2)=N[C@H]1c1ccc(F)cc1Cl [Example 9, 3-((R)-4-(((R)-6-(2-Chloro-4-fluorophenyl)-5-(ethoxycarbonyl)-2-(thiazol-2-yl)-3,6-dihydropyrimidin-4-yl)methyl)morpholin-2-yl)propanoic acid] | 0.048 µM | 2570 ng/mL | 0.083 h | 1.51 mL/min/kg | 6.59 h | 11300 ng·h/mL | 10600 ng·h/mL | 0.63 L/kg | 75.6 mL/min/kg | 0.447 h | 281 mL/min/kg | 0.324 h | 19.4 mL/min/kg | 2.96 h | 11.4 mL/min/kg | 2.53 h | 4360 ng/mL | 0.5 h | 4.62 h | 24800 ng·h/mL | EC50 ([1]; HepG2.2.15, isomers of compound of formular (II)): 0.048 µM; AUC(0-t) [2, 9]: 48600 ng·h/mL; AUC(0-t) [2, 10]: 24300 ng·h/mL; F ([2]; po, 2.5 mg/kg): 87.91%
3 | COC(=O)C1=C(CN2CCO[C@H](CCC(=O)O)C2)NC(c2nccs2)=N[C@H]1c1ccc(F)cc1Cl [Example 10, 3-((R)-4-(((R)-6-(2-Chloro-4-fluorophenyl)-5-(methoxycarbonyl)-2-(thiazol-2-yl)-3,6-dihydropyrimidin-4-yl)methyl)morpholin-2-yl)propanoic acid] | 0.045 µM | 2430 ng/mL | 0.083 h | 1.74 mL/min/kg | 5.16 h | 9710 ng·h/mL | 9400 ng·h/mL | 0.62 L/kg | 15.4 mL/min/kg | 2.19 h | 57.7 mL/min/kg | 1.58 h | 6.13 mL/min/kg | 9.39 h | 3.72 mL/min/kg | 7.78 h | 4560 ng/mL | 0.833 h | 4.57 h | 28000 ng·h/mL | AUC(0-t) [2, 9]: 54000 ng·h/mL; AUC(0-t) [2, 10]: 27400 ng·h/mL; F ([2]; po, 2.5 mg/kg): 115%
